We go through 1 compound from patent US10722491B2, “Phenol compound and combination of same with a benzodiazepine fused to 1,4-dihydropyridine for treating diseases of the central nervous and vascular systems” (UNIVERSIDAD DE LA HABANA, priority 2016, dated 2020).

The nature of test [1]: KM-34 capacity to reduce DPPH radicals. Type of test: biochemical. On the procedure:
FIG. 1. Percentage reduction of DPPH (100 μM) by KM-34 (5-400 μM) was determined by changing in the absorbance at 550 nm from a target containing only DPPH and vehicle (zero concentration of KM −34 or AA), after 30 minutes of reaction. Values are expressed as the mean ± SD (n=3). *P<0.05 with respect to the vehicle.
One of the most commonly used methods to estimate antioxidant activity is to evaluate the ability of different compounds to reduce DPPH radicals, which can be determined spectrophotometrically (Brand-Williams et al., 1995). […] Electron delocalization causes the intense violet coloration of the DPPH radical form when it is prepared in ethanol solution (Molyneux et al., 2004).
The IC 50 value obtained for KM was approximately 2.4 times lower than that obtained for ascorbic acid (AA) used as the reference compound.
(In general: Loss of DPPH colour is used to gauge radical scavenging.)

Test [2] in a line: O2.- radical scavenging in the pyrogallol autoxidation test. Format: biochemical. On the procedure:
FIG. 2. Activity of KM-34 (5-100 μM) as radical scavenger O2.− expressed as the percentage inhibition of autoxidation of pyrogallol. The same was obtained by varying the absorbance at 420 nm for 1 minute with respect to a blank uninhibited reaction: without KM-34; the slope was calculated for each concentration of the sample and for the target with a R2>0.98. The reaction takes place in […] Tris-HCl pH 8.2 buffer and was initiated by the addition of 0.134 mM Pirogalol*P<0.05 to the carrier (uninhibited reaction).
A non-enzymatic system generating these radicals was used to evaluate the O2.^− sequestration activity of KM-34, which catalyzes the autoxidation of pyrogallol, forming a colored compound that absorbs at 420 nm (Marklund, 1985).

In another test the test system is rat brain homogenate. The test is described as follows: Spontaneous or Fe3+/AA-induced lipid peroxidation (POL) in rat brain homogenate. Type of test: biochemical. The settings on record: 37° C 1 hour, MDA. On the procedure:
FIG. 5. Effects of KM-34 (0.01-100 μM) on spontaneous lipid peroxidation and e induced by 100 mM FeCl3 and 100 mM AA. The control contains absolute ethanol instead of KM-34. The samples were incubated at 37° C for 1 hour and then the MDA levels were quantified by thiobarbituric acid (ATB) and the absorbance was determined at 532 nm. Values are expressed as the mean ± SD (n=3). *P<0.05 with respect to the control.
The brain homegenate is rich in phospholipids, which undergo spontaneous or induced autoxidation by the presence of FeCl3 and AA, where the latter is oxidized at the expense of the metal being reduced and thus the ion is available to catalyze the Fenton-Habber reaction-Weiss (Hiroi et al., 2005; Kooncumchoo, 2005).

Test [3] has as its system PC12 cells. Kind of test: Cytoprotection against L-glutamate damage in PC12 cells (MTT). Type of test: cell-based. The settings on record: 50 mM L-glutamate. On the procedure: FIG. 6. Cytoprotective effect of KM-34 10001-10 HM) against damage induced by L-glutamate (50 mmol/L) in cultures of PC12 cells. Viability (% live cells) was determined by the MTT assay. Cells were seeded at a density of 5×10^5 cells/mL in a 96-well plate. KM-34 was added simultaneously to the addition of L-glutamate. The culture was then allowed to incubate at 37° C, […] and 5% CO 2 for 4 hours. After this time the supernatant was removed and the cells were incubated with 20 μg of MTT for an additional 2 hours and the absorbance at 450 nm was measured with reference to 630 nm. The results are expressed as percentage of live cells relative to the control (cells without damage, 100% of live cells. * Represents significant differences (p<0.05) with respect to the L-glutamate control.
FIG. 14. The survival rate for […] administered 50 mM Glutamate is shown. The control group was not administered 50 mM Glutamate. The remaining four groups were administered 50 mM Glutamate. The “Glu 50 mM” group was not administered any compounds of the invention. The “JM 0.01 μM” group was administered 0.01 μM JM-20. The “KM 0.01 μM” group was administered 0.01 μM KM-34. The “JM 0.01 μM+KM 0.01 μM” group was administered 0.01 μM JM-20 and 0.01 μM KM-34.
At values above 1 μM KM-34, the cytoprotection response is greater than 80%.

For test [4], the system named is PC12 cells. The test is described as follows: Cytoprotection against FeSO4/AA damage in PC12 cells (MTT). Type of test: cell-based. The protocol:
FIG. 8. Cytoprotective effect of KM-34 (0.001-10 μM) against damage induced by FeSO4 (5 mmol/L) and ascorbic acid (AA, 2 mmol/L) in cultures of PC12 cells. Viability 1% live cells) was determined by the MTT assay. Cells were seeded at a density of 5×10^5 cells/mL in a 96-well plate. The KM-34 was added simultaneously to the addition of the mixture of FeSO 4 and AA. The culture was then allowed to incubate at 37° C, […] and 5% CO 2 for 4 hours. After this time the supernatant was removed and the cells were incubated with 20 μg of MTT for a further 2 hours and the absorbance at 450 nm was measured with reference to 630 nm. The results are expressed as percentage of live cells relative to the control (undamaged cells, 100% live cells. *Represents significant differences (p<0.05) with respect to FeSO4/AA control.
The FeSO4/AA system is a strong catalyst for oxidative reactions in cells such as PC12 leading to their death (Hiroi et al., 2005; Núñez et al., 2011). […] At concentrations greater than 1 μM the % cell survival was greater than 90% (FIG. 8).

Usually IC50 stands for the concentration that inhibits the measured activity by half.

`CC1(C)OC(=O)C(=Cc2ccc(O)c(O)c2)C(=O)O1` [KM-34, 5-[(3,4-dihydroxyphenyl)methylidene]-2,2-dimethyl-1,3-dioxane-4,6-dione]: the IC50 in test [1] (DPPH 100 μM, 30 minutes of reaction, read-out: IC50, reduction of DPPH radicals) turned out to be 16.3 µM; in test [2] (Tris-HCl pH 8.2, read-out: IC50, inhibition of autoxidation of pyrogallol (O2.- scavenging)) it was 11 µM. In test [1] (DPPH, AA as reference compound), the “IC50 of KM relative to ascorbic acid (times lower)” value was “approximately 2.4 times”. In addition, the “Concentration giving significant (p<0.05) inhibition of the DPPH radical vs vehicle” value in test [1] (after 30 minutes of reaction) is given as “higher than 5 μM”. For the same compound, the DPPH reduction response entry in test [1] (at concentrations above 50 μM) is given as “reached its maximum response”. Further, the “Concentration significantly (p<0.05) inhibiting formation of oxidized pyrogallol vs vehicle” value in test [2] is “greater than 5 μM”. In test [2] (from 50 μM), the “Inhibition of oxidation of pyrogallol” value is “totally inhibited”. For the same compound, the “Concentration significantly inhibiting Fe3+/AA-induced POL” value with rat brain homogenate (induced by FeCl3 and AA) was over 10 µM. In addition, in the test with rat brain homogenate (spontaneous lipid peroxidation), the “Concentration significantly inhibiting spontaneous POL” value is recorded as “higher than 0.1 μM”. In the test on PC12 cells [3] (4 hours), the “Concentration significantly (P<0.01) inhibiting cell damage by L-glutamate” value is listed as “greater than 0.01 μM”. Moreover, the Cytoprotection response entry in the test on PC12 cells [3] (above 1 μM KM-34) was “greater than 80%”. Further, the “Concentration showing cytoprotective effects against FeSO4/AA” value in the test on PC12 cells [4] (FeSO4 5 mmol/L and AA 2 mmol/L, 4 hours) is “higher than 0.001 μM”. Also, the “Cells surviving oxidizing conditions” value with PC12 cells [4] (FeSO4/AA, concentrations between 0.01-10 μM) is 90 out of 100 cells. Besides, the “% cell survival” value with PC12 cells [4] (FeSO4/AA, concentrations greater than 1 μM) is on record as “greater than 90%”.
